Structures are written as SMILES.

This data set is described as follows: Cytotoxicity Determination. To be noted: human, HEp-2 cells, without addition of virus, CCK-8 readout, bins (Table 4: greater than 100 μM; Table 5: equal to or less than 100 μM and greater than 10 μM), read-out: 50% cytotoxicity concentration (CC50). The data set is classed as cell-based. The method, then:
In order to determine the compound cytotoxicity, in parallel, each of the compounds is applied to duplicate wells in a 384-well cell plate at serial final concentrations starting from 100 μM using ½ stepwise dilutions for 7 points without addition of virus. Incubate the cells at 37° C., 5% CO2 for 5 days. Add 6 μl CCK-8 into each well and incubate in a CO2 incubator at 37° C. for 3-4 hours. Read the plates to obtain the optical densities which are used to calculate 50% cytotoxicity concentration (CC50).
Turning to `COc1ccc(C(=O)NCC(=O)N/N=C/c2csc3ccccc23)cc1` [Compound 101], the CC50 at 5 days is above 100 µM. The figure for `Cc1ccc(/C=N/NC(=O)CNC(=O)c2ccccc2)o1` [Compound 119] is 10 to 100 µM.

Regarding `CC(C)Oc1ccc(C(=O)NCC(=O)N/N=C/c2csc3ccccc23)cc1` [Compound 236], the CC50 at 5 days fell in the range of 10 to 100 µM. With `CN(C)c1ccc(C(=O)NCC(=O)N/N=C/c2csc3ccccc23)cc1` [Compound 237], the CC50 at 5 days is 10 to 100 µM.

On to `COc1ccc(S(=O)(=O)NCC(=O)N/N=C(\C)c2csc3ccccc23)cc1OC` [Compound 240], for which the CC50 at 5 days was 10 to 100 µM.

With `COc1ccc(CNCC(=O)N/N=C/c2csc3ccccc23)cc1OC` [Compound 241], the CC50 at 5 days was in the range of 10 to 100 µM. For `COc1ccc(C(=O)N(C)CC(=O)N/N=C(\C)c2csc3ccccc23)cc1OC` [Compound 242], the CC50 at 5 days is above 100 µM. Under `COc1ccc(C(=O)NCCC(=O)N/N=C(/C)c2csc3ccccc23)cc1OC` [Compound 243] stands above 100 µM; under `COc1ccc(C(=O)NCC(=O)N/N=C/c2cncc3ccccc23)cc1OC` [Compound 412], 10 to 100 µM; under `COc1ccc(C(=O)NCC(=O)N/N=C(\C)c2c(C)[nH]c3ccccc23)cc1OC` [Compound 416], 10 to 100 µM. With `COc1ccc(C(=O)NCC(=O)N/N=C(\C)c2nc3ccccc3s2)cc1OC` [Compound 417], the CC50 at 5 days was in the range of 10 to 100 µM.

As to `COc1ccc(C(=O)NCC(=O)N/N=C(\C)c2cc(-c3ccccc3)sc2C)cc1OC` [Compound 419], the CC50 at 5 days lay within 10 to 100 µM.

As for `COc1ccc(C(=O)NCC(=O)NN=C2Cc3ccccc3C2)cc1OC` [Compound 420], the CC50 at 5 days is above 100 µM.

For the compound `COc1ccc(C(=O)NCC(=O)N/N=C2\CCc3cc(OC)c(OC)cc32)cc1OC` [Compound 421], the CC50 at 5 days was above 100 µM. For the compound `COc1ccc2c(c1)/C(=N/NC(=O)CNC(=O)c1ccc(OC)c(OC)c1)CC2` [Compound 424], the CC50 at 5 days was above 100 µM. Under `COc1ccc(C(=O)NCC(=O)N/N=C2\CCc3ccccc32)cc1OC` [Compound 425] stands above 100 µM; under `COc1ccc(C(=O)NCC(=O)N/N=C(\C)c2csc3c2CCCC3)cc1OC` [Compound 428], above 100 µM; under `COc1ccc(C(=O)NCC(=O)N/N=C(\C)c2csc(-c3ccccc3)c2)cc1OC` [Compound 429], above 100 µM. For `COc1ccc(C(=O)NCC(=O)NN=C(c2cccs2)c2cccs2)cc1OC` [Compound 431], the CC50 at 5 days was above 100 µM. In the case of `COc1ccc(C(=O)NCC(=O)N/N=C(\C)c2csc3ccc(Br)cc23)cc1OC` [Compound 432], the CC50 at 5 days is 10 to 100 µM.

As to `COc1ccc(C(=O)NCC(=O)N/N=C(\C)c2cccc3ccccc23)cc1OC` [Compound 433], the CC50 at 5 days was in the range of 10 to 100 µM.

As for `COc1ccc(C(=O)NCC(=O)N/N=C(\C)c2cnc3ccccc3c2)cc1OC` [Compound 435], the CC50 at 5 days is above 100 µM.

For `COc1ccc(C(=O)NCC(=O)N/N=C(\C)c2c(Br)sc3ccccc23)cc1OC` [Compound 437], the CC50 at 5 days lay within 10 to 100 µM. As to `CCOc1ccc(C(=O)NCC(=O)N/N=C(\C)c2csc3cccnc23)cc1OC` [Compound 465], the CC50 at 5 days was in the range of 10 to 100 µM. The figure for `COc1ccc(CC(=O)NCC(=O)N/N=C(/C)c2csc3ccccc23)cc1OC` [Compound 472] is 10 to 100 µM; for `COc1cc(C(=O)NCC(=O)N/N=C(\C)c2csc3ccccc23)ccn1` [Compound 473] it is above 100 µM. For `COc1ccc(C(=O)NCC(=O)N/N=C/c2csc(-c3ccccc3)c2)cc1OC` [Compound 487], the CC50 at 5 days was 10 to 100 µM. Under `COc1ccc(C(=O)NCC(=O)c2nc(-c3csc4c(F)cccc34)n[nH]2)cc1OC` [Compound 860] stands 10 to 100 µM. For the compound `CCOc1ccc(C(=O)NCC(=O)NNC(=O)c2csc3cccnc23)cc1OC` [Compound 902], the CC50 at 5 days was 10 to 100 µM. The figure for `COc1ccc(C(=O)NCC(=O)NNCCC(=O)c2csc3ccccc23)cc1OC` [Compound 904] is above 100 µM. The figure for `COc1ccc(C(=O)NCC(=O)Nc2nccc3ccccc23)cc1OC` [Compound 906] is above 100 µM; for `COc1ccc(C(=O)NCC(=O)Nc2cc3ccccc3c(=O)[nH]2)cc1OC` [Compound 907] it is above 100 µM; for `CCOc1ccc(C(=O)NCC(=O)NCCc2csc3c(F)cccc23)cc1OC` [Compound 908] it is above 100 µM.

Consider `CCOc1ccc(C(=O)NCC(=O)Nc2cc3ccccc3n2C)cc1OC` [Compound 909], for which the CC50 at 5 days is above 100 µM. The figure for `CCOc1ccc(C(=O)NCC(=O)NCC(=O)c2csc3c(F)cccc23)cc1OC` [Compound 910] is 10 to 100 µM; for `CCOc1ccc(C(=O)NCC(=O)Nc2nc3cc(C(=O)OC)ccc3n2CCOC)cc1OC` [Compound 912] it is 10 to 100 µM.

As for `CCOc1ccc(C(=O)NCC(=O)Nc2nc3ccccc3n2CCOC)cc1OC` [Compound 913], the CC50 at 5 days is above 100 µM. The figure for `CCOc1ccc(C(=O)NCC(=O)Nc2nc3cc(F)ccc3n2CCOC)cc1OC` [Compound 914] is above 100 µM; for `CCOc1ccc(C(=O)NCC(=O)Nc2nc3ccc(F)c(F)c3n2CCOC)cc1OC` [Compound 915] it is above 100 µM; for `CCOc1ccc(C(=O)NCC(=O)Nc2nc3cc(C)ccc3n2CCOC)cc1OC` [Compound 916] it is above 100 µM. Under `CCOc1ccc(C(=O)NCCNC(=O)N(CCOC)c2csc3c(F)cccc23)cc1OC` [Compound 1000] stands above 100 µM.

Take `COc1cc(C(=O)CNC(=O)c2ccc(OC)c(OC)c2)nc(-c2csc3c(F)cccc23)n1` [Compound 1201]: the CC50 at 5 days was above 100 µM. Under `COc1ccc(C(=O)NCCc2ccnc(-c3csc4c(F)cccc34)n2)cc1OC` [Compound 1207] stands above 100 µM; under `COc1ccc(C(=O)NCCc2nccc(-c3csc4c(F)cccc34)n2)cc1OC` [Compound 1208], above 100 µM. For `COc1ccc(C(=O)NCC(=O)c2cncc(-c3csc4c(F)cccc34)n2)cc1OC` [Compound 1219], the CC50 at 5 days is above 100 µM. The figure for `COc1ccc(C(=O)NCC(=O)c2cc(=O)cc(-c3csc4c(F)cccc34)[nH]2)cc1OC` [Compound 1222] is above 100 µM; for `COc1cc(C(=O)NCC(=O)c2cccc(-c3csc4c(F)cccc34)n2)ccc1OC1CCNCC1` [Compound 1231] it is 10 to 100 µM; for `COc1cc(C(=O)NCC(=O)c2cccc(-c3csc4c(F)cccc34)n2)ccc1OCCN1CCOCC1` [Compound 1233] it is 10 to 100 µM. The figure for `COc1cc(C(=O)NCC(=O)c2cccc(-c3csc4c(F)cccc34)n2)ccc1OC1CCN(C)CC1` [Compound 1234] is 10 to 100 µM; for `COc1ccc(C(=O)NC(C)C(=O)c2nc(-c3csc4c(F)cccc34)ccc2O)cc1OC` (centres unmarked) [Compound 1304] it is 10 to 100 µM. For `COc1ccc(C(=O)CCC(=O)c2cccc(-c3csc4c(F)cccc34)n2)cc1OC` [Compound 1339], the CC50 at 5 days was in the range of 10 to 100 µM. The figure for `CCn1cc(-c2csc3c(F)cccc23)nc1C(=O)CNC(=O)c1ccc(OC)c(OC)c1` [Compound 1354] is 10 to 100 µM; for `COc1cc(C(=O)NCC(=O)c2ccc(OC)c(-c3ccc(F)c(Cl)c3)n2)ccc1OCCO` [Compound 1603] it is above 100 µM. The figure for `COc1ccc(C(=O)NCC(=O)c2ncc(-c3csc4c(F)cccc34)n2C)cc1OC` [Compound 2204] is 10 to 100 µM. The figure for `COc1ccc(C(=O)NCC(=O)c2cnc(-c3csc4c(F)cccc34)n2C)cc1OC` [Compound 2205] is above 100 µM. Consider `COc1ccc(C(=O)Nc2cn(C)c3ccc(-c4csc5c(F)cccc45)nc3c2=O)cc1OC` [Compound 2901], for which the CC50 at 5 days was above 100 µM. For `COc1ccc(C(=O)NN(C)C(=O)c2cccc(-c3csc4c(F)cccc34)n2)cc1OC` [Compound 3102], the CC50 at 5 days fell in the range of 10 to 100 µM. The figure for `COc1ccc(C(=O)NCC(=O)c2coc(-c3csc4c(F)cccc34)n2)cc1OC` [Compound 3200] is above 100 µM; for `COc1ccc(C(=O)NCC(=O)c2nc(-c3csc4c(F)cccc34)co2)cc1OC` [Compound 3201] it is 10 to 100 µM; for `COc1ccc(C(=O)NCC(=O)N/C=C/c2csc3ccccc23)cc1OC` [Compound 4102] it is 10 to 100 µM. As for `COc1ccc(C(=O)NCc2nnc(-c3csc4ccccc34)o2)cc1OC` [Compound 4103], the CC50 at 5 days is above 100 µM. The figure for `COc1ccc(C(=O)NCC(=O)Nc2ccc3c(-c4ccccc4)c[nH]c3c2)cc1OC` [Compound 4104] is above 100 µM.
